Source: patent US5624906A, “Oral hygiene compositions comprising heteroatom containing alkyl aldonamide compounds” (Lever Brothers Company, Division of Conopco, Inc., priority 1994, dated 1997)
Where two headings read alike, the source gives them in different places. Each block holds one compound with its values, some of them ahead of it.

Columns and labels:
[1] = Clarity of prototype surfactant compositions (Example 87); assay type: physicochemical; details: room temperature; for Appearance: 6 months
Procedure: The prototype shampoo composition is as follows:
(§1) The above formulations were prepared by admixing the above ingredients in listed order and heating the mixture to about 80° C. with rapid stirring. The mixture was then cooled to about 40° C., placed in a clear jar and stored at room temperature for 6 months.

Krafft point = assay type: physicochemical; details: for Krafft Point (0.1%): 0.1% in water; for Krafft Point (1.0%): 1.0% in water
Procedure: The temperature at and above which surfactants begin to form micelles instead of precipitates is referred to as the Krafft point (Tk) and at this temperature the solubility of a surfactant becomes equal to its CMC (numerical value at which micelles are formed).
The Krafft point was measured by preparing 650 ml of a 0.1% or 1.0% dispersion of aldonamide in water by weight. If the surfactant was soluble at room temperature, the solution was slowly cooled to 0° C. […] (less than zero). If it precipitated out of solution, the temperature at which precipitation occurs was taken as the Krafft point.
If the surfactant was insoluble at room temperature, the dispersion was slowly heated until the solution became homogeneous. It was then slowly cooled until precipitation occurred. The temperature at which the surfactant precipitates out of solution upon cooling was taken as the Krafft point.

[2] = Ross-Miles foam height (Examples 81-84); assay type: physicochemical; details: 0.1% aldonamide, 40° C. (or 5-10° C. above Krafft point), 0 ppm hardness; for Foam Height Final: after 10 minutes
Procedure: (§2) In the Ross-Miles method, 200 mL of a surfactant solution contained in a pipette of specified dimensions with a 2.9-mm-i.d. orifice is allowed to fall 90 cm onto 50 mL of the same solution contained in a cylindrical vessel maintained at a given temperature by means of a water jacket. The height of the foam produced in the cylindrical vessel is read immediately after all the solution has run out of the pipette and then again after a given amount of time.
Using this method, the foam production (initial foam height in mm) and foam stability (final foam height after 10 minutes in mm) were measured at 0.1% aldonamide concentration, 40° C. and 0 ppm (parts per million) hardness.

[3] = Foam stability and enhancement, Ross-Miles method (Example 85); assay type: physicochemical; details: triolein/calcium stearate 1 g/L, 10:90 mole % with C12 LAS, 35° C., read after 30 minutes
Procedure: The triolein/calcium stearate mixture was dispersed to the above solutions using a high speed shear mixer at 60° C. and then cooled to 35 ° C. The triolein/calcium stearate mixture represents an extreme type of antifoam behavior found in sebum soil.
as §2, with “read” for “read immediately”, “30 minutes” for “all the solution”, “elapsed.” for “run out of the pipette and then again after a given amount of time.”
The foam stability and enhancement of the heteroatom containing alkyl aldonamides was further determined using a 10:90 mole percent solution of C8 /C10 oxypropyl D-gluconamide (C8 C10 OPG): sodium dodecyl benzene sulfonate (C12 LAS) and compared to identical solutions of dodecyl D-gluconamide (C12 Gluc): sodium dodecyl benzene sulfonate in the presence and absence of the triolein/calcium stearate antifoam.

[4] = cited from earlier work
[5] = Effectiveness in reducing surface tension (surface pressure at CMC); assay type: physicochemical; details: 60 °C, estimated by extrapolating a linear line
Text: As mentioned before, surface tension reduction depends on the replacement of water molecules at the interface by surfactant molecules, therefore the effectiveness of a surfactant in reducing interfacial surface tension should reflect the saturated concentration of surfactant at the interface relative to that in bulk liquid phase. During this process the surface tension of water steadily decreases as bulk phase surfactant concentration increases. This will continue until the concentration reaches the critical micelle concentration (CMC), above which the surface tension remains nearly unchanged and the interface is saturated with surfactant. The surface tension at the CMC is therefore very close to the minimum interfacial tension or maximum surface pressure that the system can achieve. The surface pressure at this point, IIcmc, is a suitable measure of the effectiveness of a surfactant in reducing surface tension and is given as:
IIcmc =20+2.3nRT(Γmax) log[CMC/C20 ]
n=1 which represents the number of ions whose surface concentration changes with the change in liquid phase surfactant concentration.
CMC/C20 =is the ratio of the critical micelie concentration to the bulk phase surfactant concentration necessary to reduce the surface tension of water by 20 dyn/cm.

[6] = Effectiveness of adsorption (surface excess concentration, Gibbs equation); assay type: physicochemical; details: 60 °C, estimated by extrapolating a linear line
Text: The surface excess concentration at surface saturation (Γmax) is defined as a measure of the effectiveness of surfactant adsorption at the water/air interface and represents the maximum value to which adsorption can be obtained. Effectiveness of adsorption is related to the interfacial area occupied by the surfactant molecule. The smaller the effective cross-sectional area of a surfactant at the interface, the greater its effectiveness of adsorption. The effectiveness of adsorption is an important factor in determining surfactant properties such as detergency, foaming, wetting or emulsification. While not wishing to be bound by theory, it is believed that surfactants that absorb effectively at the interface tend have tightly packed coherent interfacial films and often provide better surfactant benefits than those with loosely packed noncoherent films. The effectiveness of adsorption of C8 /C10 oxypropyl D-gluconamide was determined using the Gibbs equation given as: […]
(∂γ/∂log[Conc])T

[7] = cited from earlier work; remark: listed apart in the source
[8] = Foam stability and enhancement of sodium/ammonium lauryl sulfate, Ross-Miles (Example 86); assay type: physicochemical; details: 45° C., 4.0% foam stabilizer in sodium/ammonium lauryl sulfate composition
Procedure: The results were compared to identical compositions comprising petrochemically derived foam stabilizing agents, in particular, alkanolamides and alcohol ethoxylates. The prototype surfactant composition is as follows:
The compositions were prepared by admixing the ingredients in listed order with rapid stirring at 45--50° C. Foam stability and enhancement were measured at 0.1% based on sodium and ammonium lauryl sulfate (0.16% total solids) at 45° C. and 0 or 120 parts per million (ppm) hardness calcium:magnesium ion 2:1.

[9] = Viscosity of sodium lauryl sulfate compositions (Example 88); assay type: physicochemical; details: for Viscosity: 22° C.
Procedure: The prototype surfactant composition is as follows:
as §1
It is well known that the viscosity of a liquid composition comprising of anionic surfactant can be modified by the addition of inorganic salts, such as sodium chloride. However, in the absence of an organic modifier, high levels of salt may be necessary to achieve the required viscosity which may lead to problems of storage at cold temperature or even salting out certain ingredients. In practice, however, the viscosity of a liquid composition is modified by the simultaneous addition of thickener and small amounts of inorganic salt (viscosity cobuilder). The combined effect is greater than either one alone. The viscosity of the above prototype surfactant composition comprising various amounts of heteroatom containing alkyl aldonamide compound is as follows: […]

[10] = Water solubility (statements); assay type: physicochemical
[11] = Critical micelle concentration, Wilhelmy plate method; assay type: physicochemical; details: 60 °C
Procedure: The critical micelie concentration (CMC) is defined as the concentration at which a surfactant forms micelles in aqueous solution. Micellization is the preferred interfacial phenomena, since certain surfactant benefits such as detergency (the solubilization of soils), foaming, wetting or emulsification depend on the formation of these aggregates in solution.
The CMC value of C8 /C10 oxypropyl D-gluconamide was determined by plotting surface tension as a function of log(concentration) and extrapolating linear points to obtain an intersection point. The concentration at this point was taken as the CMC. The technique used was the Wilhelmy plate method and the instrument used was a Lauda Auto-Tensiometer. While wishing not to be bound to theory, it is believed that surfactants with low CMC values form micelles more readily at lower concentrations than those with high CMC values.

[12] = 5.0% in […] sodium lauryl sulfate
[13] = 3.0% in […] sodium lauryl sulfate

Compound: CCCCCCCCCNC(=O)[C@H](O)[C@@H](O)[C@H](O)[C@H](O)CO [C9 D-Gluconamide]
- Appearance ([1]; 4.0% in […] sodium lauryl sulfate): Precipitate
- Appearance (Time): time of precipitate ([1]; 4.0%): 2 weeks
- Appearance [1, 12]: Precipitate
- Appearance (Time): time of precipitate ([1]; 5.0%): 2 weeks
- Krafft Point (0.1%) (Krafft point): 53 °C
- Foam Height Initial [2]: 0 mm
- Foam Height Final [2]: 0 mm

Compound: sodium dodecyl benzene sulfonate [C12 LAS]
- Foam Height, With Antifoam [3]: 61 mm

Compound: octyl/decyloxypropyl D-lactobionamide [C8 /C10 Oxypropyl D-Lactobionamide]
- Appearance [1, 13]: Clear
- Appearance [1, 12]: Clear
- Krafft Point (1.0%) (Krafft point): < 0 °C
- Foam Height Initial [2]: 168 mm
- Foam Height Final [2]: 158 mm

Compound: CCCCCCCCCCCCOCCCNC(=O)[C@H](O)[C@@H](O)[C@H](O[C@@H]1O[C@H](CO)[C@H](O)[C@H](O)[C@H]1O)[C@H](O)CO [C12 Oxypropyl D-Lactobionamide, dodecyloxypropyl D-lactobionamide]
- Viscosity Increase ([9]; 3.0% thickener): 23 x
- Viscosity ([9]; 3.0% thickener): 340 Centipoise
- Viscosity Increase ([9]; 5.0% thickener): 97 x
- Viscosity ([9]; 5.0% thickener): 1455 Centipoise
- Krafft Point (1.0%) (Krafft point): < 0 °C

Compound: CCCCCCCCCCCC(=O)N(CCO)CCO [Lauramide DEA, lauramide diethanolamine]
- Initial FH ([8]; 0 ppm hardness): 190 mm

Compound: CCCCCCCCCCNC(=O)[C@H](O)[C@@H](O)[C@H](O)[C@H](O)CO [C10 D-Gluconamide]
- Appearance [1, 13]: Precipitate
- Appearance [1, 12]: Precipitate
- Krafft Point (0.1%) (Krafft point): 75 °C
- Foam Height Final [2]: 6 mm

Compound: CCCCCCCCCCCCNC(=O)[C@H](O)[C@@H](O)[C@H](O)[C@H](O)CO [C12 D-Gluconamide, dodecyl D-gluconamide]
- water solubility (in words) [10]: insoluble in water
- CMC (in words) [11]: None (Insoluble)
- Krafft Point (0.1%) (Krafft point): 91 °C

Compound: CCCCCCCCCCCCOCCOCCOCCOCCOCCOCCOCCO [Dodecylhepta(oxyethylene) Ether]
- Πcmc (surface pressure) ([4]; 25 °C): 38.3 dyn/cm
- Πcmc (surface pressure) ([4]; 40 °C): 38.5 dyn/cm
- Πcmc (surface pressure) [5]: 36.8 dyn/cm
- Γmax (surface excess concentration at surface saturation) [6]: 2.71 × 10^-10 mole/cm^2
- Γmax (surface excess concentration at surface saturation) ([7]; 25 °C): 2.90 × 10^-10 mole/cm^2
- Γmax (surface excess concentration at surface saturation) ([7]; 40 °C): 2.77 × 10^-10 mole/cm^2

Compound: CCCCCCCCNC(=O)[C@H](O)[C@@H](O)[C@H](O)[C@H](O)CO [C8 D-Gluconamide]
- Krafft Point (0.1%) (Krafft point): 12 °C
- Foam Height Initial [2]: 0 mm
- Foam Height Final [2]: 0 mm

The next lines start with results.

- Πcmc (surface pressure) [5]: 41.4 dyn/cm
- Γmax (surface excess concentration at surface saturation) [6]: 3.83 × 10^-10 mole/cm^2
Compound: CCCCCCCCCCCCOCCOCCOCCO [Dodecyltri(oxyethylene) Ether]
- Πcmc (surface pressure) ([4]; 25 °C): 44.1 dyn/cm
- Πcmc (surface pressure) ([4]; 40 °C): 43.1 dyn/cm
- Γmax (surface excess concentration at surface saturation) ([7]; 25 °C): 3.98 × 10^-10 mole/cm^2
- Γmax (surface excess concentration at surface saturation) ([7]; 40 °C): 3.90 × 10^-10 mole/cm^2

- Final FH after 60 Min. ([8]; 0 ppm hardness): 70 mm
- Final FH after 60 Min. ([8]; 120 ppm hardness): 53 mm
Compound: cocoamide monoethanolamine [Cocoamide MEA]

- Appearance [1, 13]: Precipitate
- Appearance (Time): time of precipitate ([1]; 3.0%): 1 days
- Appearance [1, 12]: Precipitate
- Appearance (Time): time of precipitate ([1]; 5.0%): 0.083 days
Compound: coco D-gluconamide

- Πcmc (surface pressure) [5]: 40.7 dyn/cm
- Γmax (surface excess concentration at surface saturation) [6]: 3.01 × 10^-10 mole/cm^2
Compound: CCCCCCCCCCCCOCCOCCOCCOCCO [Dodecyltetra(oxyethylene) Ether]
- Πcmc (surface pressure) ([4]; 25 °C): 43.4 dyn/cm
- Πcmc (surface pressure) ([4]; 40 °C): 42.0 dyn/cm
- Γmax (surface excess concentration at surface saturation) ([7]; 25 °C): 3.63 × 10^-10 mole/cm^2
- Γmax (surface excess concentration at surface saturation) ([7]; 40 °C): 3.41 × 10^-10 mole/cm^2

- Viscosity Increase ([9]; 3.0% thickener): 120 x
- Viscosity ([9]; 3.0% thickener): 1800 Centipoise
- Viscosity Increase ([9]; 5.0% thickener): 1373 x
- Viscosity ([9]; 5.0% thickener): 20600 Centipoise
- Appearance [1, 13]: Clear
- Appearance [1, 12]: Precipitate
- Appearance (Time): time of precipitate ([1]; 5.0%): 5 months
- Krafft Point (0.1%) (Krafft point): 61 °C
- Foam Height Initial [2]: 200 mm
- Foam Height Final [2]: 110 mm
Compound: CCCCCCCCCCCCOCCCNC(=O)[C@H](O)[C@@H](O)[C@H](O)[C@H](O)CO [C12 Oxypropyl D-Gluconamide]

- Appearance [1, 13]: Clear
- Appearance [1, 12]: Clear
- Krafft Point (0.1%) (Krafft point): 18 °C
- Foam Height Initial [2]: 186 mm
- Foam Height Final [2]: 182 mm
Compound: cocoaminopropyl D-gluconamide

- Πcmc (surface pressure) [5]: 40.7 dyn/cm
- Γmax (surface excess concentration at surface saturation) [6]: 3.16 × 10^-10 mole/cm^2
Compound: CCCCCCCCCCCCOCCOCCOCCOCCOCCO [Dodecylpenta(oxyethylene) Ether]
- CMC/C20 ([4]; 25 °C): 15.0
- Πcmc (surface pressure) ([4]; 25 °C): 41.5 dyn/cm
- Πcmc (surface pressure) ([4]; 40 °C): 41.2 dyn/cm
- Γmax (surface excess concentration at surface saturation) ([7]; 25 °C): 3.31 × 10^-10 mole/cm^2
- Γmax (surface excess concentration at surface saturation) ([7]; 40 °C): 3.28 × 10^-10 mole/cm^2
